The source of these data is patent EP4806900A2, “RAS INHIBITORS” (Revolution Medicines, Inc., priority 2019, dated 2021).

One assay deals with NCI-H358 (K-Ras G12C). Kind of assay: CellTiter-Glo cell viability assay, NCI-H358. The assay is classed as cell-based, human. As to conditions: Homo sapiens, NCI-H358, Table 5; read-out: H358 Cell Viability assay data (K-Ras G12C, IC50). How it is done: Note - The following protocol describes a procedure for monitoring cell viability of K-Ras mutant cancer cell lines in response to a compound of the invention. Other RAS isoforms may be employed, though the number of cells to be seeded will vary based on cell line used.
Test compounds (132.5 nL) were directly dispensed into the assay plates containing cells. […] On day 5, assay plates and their contents were equilibrated to room temperature for approximately 30 minutes. […] Luminescence was measured using the PerkinElmer Enspire. Data were normalized by the following: (Sample signal/Avg. DMSO)*100. The data were fit using a four-parameter logistic fit.
(ATP-based viability assays read luminescence as a measure of living cells.)
A word on the IC50: it is the point on the concentration scale where inhibition reaches its midpoint. With `CO[C@@H](C)c1ncccc1-c1c2c3cc(ccc3n1CC(F)(F)F)-c1cc(cc(C(F)F)c1)C[C@H](NC(=O)[C@H](C(C)C)N(C)C(=O)[C@H]1CCN(C(=O)C#CC(C)(C)N3CCC3)C1)C(=O)N1CCC[C@H](N1)C(=O)OCC(C)(C)C2` (atropisomer, axis not shown) [Compound A370], the concentration for half-maximal inhibition (IC50) was under 0.01 µM.
On to `CCn1c(-c2cccnc2[C@H](C)OC)c2c3cc(ccc31)-c1cccc(c1)C[C@H](NC(=O)[C@H](C1CCCC1)N(C)C(=O)[C@@H]1CN(C(=O)C#CC(C)(C)N(C)C)C[C@@H]1C)C(=O)N1CCC[C@H](N1)C(=O)OCC(C)(C)C2` (atropisomer, axis not shown) [Compound A391], for which the IC50 is under 0.01 µM.
For the compound `C=CC(=O)N1CC(CN2C(=O)O[C@H](C)[C@H]2C(=O)N[C@H]2Cc3cccc(c3)-c3ccc4c(c3)c(c(-c3cccnc3[C@H](C)OC)n4CC)CC(C)(C)COC(=O)[C@@H]3CCCN(N3)C2=O)C1` (atropisomer, axis not shown) [Compound A460], the IC50 was over 1 µM.
On the same count and under the same terms, the figure for `CCn1c(-c2cccnc2[C@H](C)OC)c2c3cc(ccc31)-c1cc(cc(C(F)F)c1)C[C@H](NC(=O)[C@H](C(C)C)N(C)C(=O)[C@H]1CCN(C(=O)C#CC(C)(C)N3CCC3)C1)C(=O)N1CCC[C@H](N1)C(=O)OCC(C)(C)C2` (atropisomer, axis not shown) [Compound A466] is under 0.01 µM.
On the same count and under the same terms, the figure for `C=CC(=O)N1CC[C@H](C(=O)N(C)[C@H](C(=O)N[C@H]2CC3=CCCN(C3)c3ccc4c(c3)c(c(-c3cccnc3[C@H](C)OC)n4CC)CC(C)(C)COC(=O)[C@@H]3CCCN(N3)C2=O)C(C)C)C1` (atropisomer, axis not shown) [Compound A486] is 0.1 to 1 µM; for `C=CC(=O)N1CC[C@@H](C(=O)N(C)[C@H](C(=O)N[C@H]2Cc3cccc(c3)-c3ccc4c(c3)c(c(-c3cccnc3[C@H](C)OC)n4CC)CC(C)(C)COC(=O)[C@@H]3CCCN(N3)C2=O)C(C)C)C1` (atropisomer, axis not shown) [Compound A488] it is under 0.01 µM; for `CO[C@@H](C)c1ncccc1-c1c2c3cc(ccc3n1CC(F)(F)F)-c1csc(n1)C[C@H](NC(=O)[C@H](C(C)C)N(C)C(=O)N1C[C@@H]3OCCN(C(=O)/C=C/CF)[C@@H]3C1)C(=O)N1CCC[C@H](N1)C(=O)OCC(C)(C)C2` (atropisomer, axis not shown) [Compound A571] it is under 0.01 µM.
Still for that read-out and setting: the figure for `CO[C@@H](C)c1ncccc1-c1c2c3cc(ccc3n1CC(F)(F)F)-c1csc(n1)C[C@H](NC(=O)[C@H](C(C)C)N(C)C(=O)N1C[C@@H]3OCCN(C(=O)/C=C/C(F)F)[C@@H]3C1)C(=O)N1CCC[C@H](N1)C(=O)OCC(C)(C)C2` (atropisomer, axis not shown) [Compound A572] is under 0.01 µM.
`CO[C@@H](C)c1ncccc1-c1c2c3cc(ccc3n1CC(F)(F)F)-c1csc(n1)C[C@H](NC(=O)[C@H](C(C)C)N(C)C(=O)N1C[C@@H]3OCCN(C(=O)/C=C/CN(C)C)[C@@H]3C1)C(=O)N1CCC[C@H](N1)C(=O)OCC(C)(C)C2` (atropisomer, axis not shown) [Compound A573]: the IC50 lay within 0.01 to 0.1 µM.
On the same count and under the same terms, the figure for `CO[C@@H](C)c1ncccc1-c1c2c3cc(ccc3n1CC(F)(F)F)-c1nc(nn1C)C[C@H](NC(=O)[C@H](C(C)C)N(C)C(=O)C1(F)CCN(C(=O)C#CC(C)(C)N(C)C)CC1)C(=O)N1CCC[C@H](N1)C(=O)OCC(C)(C)C2` (atropisomer, axis not shown) [Compound A577] is under 0.01 µM.
Same read-out and setting: the figure for `CCn1c(-c2cccnc2[C@H](C)OC)c2c3cc(ccc31)N1CCO[C@@H](C[C@H](NC(=O)[C@H](C(C)C)N3CC[C@@]4(CCN(C(=O)C#CC(C)(C)N(C)C)C4)C3=O)C(=O)N3CCC[C@H](N3)C(=O)OCC(C)(C)C2)C1` (atropisomer, axis not shown) [Compound A614] is 0.01 to 0.1 µM; for `CCn1c(-c2cccnc2[C@H](C)OC)c2c3cc(ccc31)-c1cccc(c1)C[C@H](NC(=O)[C@H](C(C)C)N(C)C(=O)C1(F)CCN(C(=O)C#CC(C)(C)N(C)C)CC1)C(=O)N1CCC[C@H](N1)C(=O)OCC(C)(C)C2` (atropisomer, axis not shown) [Compound A699] it is under 0.01 µM.

Still in this assay, the particulars now being: Homo sapiens, NCI-H358, read-out: H358 Cell Viability assay data (K-Ras G12C, IC50, uM), Table 5.
With `CCn1c(-c2cccnc2[C@H](C)OC)c2c3cc(ccc31)-c1cccc(c1)C[C@H](NC(=O)[C@H](C(C)C)N(C)C(=O)[C@H]1CCN(C(=O)C#CCN(C)C)C1)C(=O)N1CCC[C@H](N1)C(=O)OCC(C)(C)C2` (atropisomer, axis not shown) [Compound A121], the concentration for half-maximal inhibition (IC50) was under 0.01 µM.
On the same count and under the same terms, the figure for `C=CS(=O)(=O)N1CC[C@H](C(=O)N(C)[C@H](C(=O)N[C@H]2Cc3cccc(c3)-c3ccc4c(c3)c(c(-c3cccnc3[C@H](C)OC)n4CC)CC(C)(C)COC(=O)[C@@H]3CCCN(N3)C2=O)C(C)C)C1` (atropisomer, axis not shown) [Compound A124] is under 0.01 µM; for `C=CC(=O)N1CC[C@H](C(=O)N(C)[C@H](C(=O)N[C@H]2Cc3cc(O)cc(c3)-c3ccc4c(c3)c(c(-c3cccnc3[C@H](CC)OC)n4CC)CC(C)(C)COC(=O)[C@@H]3CCCN(N3)C2=O)C(C)C)C1` (atropisomer, axis not shown) [Compound A181] it is under 0.01 µM; for `C=CC(=O)Nc1cnc(C(=O)N(C)[C@H](C(=O)N[C@H]2Cc3cccc(c3)-c3ccc4c(c3)c(c(-c3cccnc3[C@H](C)OC)n4CC)CC(C)(C)COC(=O)[C@@H]3CCCN(N3)C2=O)C(C)C)n1C` (atropisomer, axis not shown) [Compound A525] it is under 0.01 µM.
For `CCn1c(-c2cccnc2[C@H](C)OC)c2c3cc(ccc31)-c1cccc(c1)C[C@H](NC(=O)[C@H](C(C)C)N1CC[C@]3(CCN(C(=O)C#C[C@H]4COCCN4C)C3)C1=O)C(=O)N1CCC[C@H](N1)C(=O)OCC(C)(C)C2` (atropisomer, axis not shown) [Compound A592], the half-inhibitory concentration (IC50) is under 0.01 µM.
As for `C=CC(=O)N1CCO[C@H]2CCN(C(=O)N(C)[C@H](C(=O)N[C@H]3Cc4nc(cs4)-c4ccc5c(c4)c(c(-c4cccnc4[C@H](C)OC)n5CC)CC(C)(C)COC(=O)[C@@H]4CCCN(N4)C3=O)C(C)C)C[C@@H]21` (atropisomer, axis not shown) [Compound A609], the IC50 is under 0.01 µM.
Regarding `CCn1c(-c2cccnc2[C@H](C)OC)c2c3cc(ccc31)-c1cccc(c1)C[C@H](NC(=O)[C@H](C(C)C)N(C)C(=O)[C@H]1CCN(C(=O)C#CC(C)(C)N3CCC(F)(F)C3)C1)C(=O)N1CCC[C@H](N1)C(=O)OCC(C)(C)C2` (relative stereo) [Compound A325], the IC50 was 0.1 to 1 µM.
Still for that read-out and setting: the figure for `C=CC(=O)N1CC[C@H](C(=O)N(C)[C@H](C(=O)N[C@H]2Cc3cc(O)cc(c3)-c3ccc4c(c3)c(c(-c3cc(CN(C)C)cnc3[C@H](C)OC)n4CC)CC(C)(C)COC(=O)[C@@H]3CCCN(N3)C2=O)C(C)C)C1` (single isomer, unassigned) [Compound A537] is under 0.01 µM.
On the same count and under the same terms, the figure for `C=CC(=O)N1CC[C@H](C(=O)N(C)[C@H](C(=O)N[C@H]2Cc3cc(O)cc(c3)-c3ccc4c(c3)c(c(-c3cccnc3)n4[C@H](C)C#N)CC(C)(C)COC(=O)[C@@H]3CCCN(N3)C2=O)C(C)C)C1` [A193] is 0.1 to 1 µM.

Still in this assay, the particulars now being: Table 5; read-out: H358 Cell Viability assay data (K-Ras G12C, IC50).
Turning to `C=CC(=O)N1CC2(CCN2C(=O)N(C)[C@H](C(=O)N[C@H]2Cc3nc(n(C)n3)-c3ccc4c(c3)c(c(-c3cccnc3[C@H](C)OC)n4CC)CC(C)(C)COC(=O)[C@@H]3CCCN(N3)C2=O)C(C)C)C1` (atropisomer, axis not shown) [Compound A612], the half-maximal inhibitory concentration (IC50) was 0.1 to 1 µM.
Still for that read-out and setting: the figure for `CCn1c(-c2cccnc2[C@H](C)OC)c2c3cc(ccc31)-c1csc(n1)C[C@H](NC(=O)[C@H](C(C)C)N(C)C(=O)N1C[C@H]3CN(C(=O)C#CC(C)(C)N(C)C)CC[C@H]31)C(=O)N1CCC[C@H](N1)C(=O)OCC(C)(C)C2` (atropisomer, axis not shown) [Compound A624] is under 0.01 µM; for `CCn1c(-c2cccnc2[C@H](C)OC)c2c3cc(ccc31)-c1csc(n1)C[C@H](NC(=O)[C@H](C(C)C)N(C)C(=O)N1C[C@@H]3CN(C(=O)C#CC(C)(C)N(C)C)CC[C@@H]31)C(=O)N1CCC[C@H](N1)C(=O)OCC(C)(C)C2` (atropisomer, axis not shown) [Compound A625] it is 0.01 to 0.1 µM.
Still for that read-out and setting: the figure for `CCn1c(-c2cccnc2[C@H](C)OC)c2c3cc(ccc31)-c1csc(n1)C[C@H](NC(=O)[C@H](C(C)C)N(C)C(=O)N1CCCOC13CN(C(=O)C#CC(C)(C)N(C)C)C3)C(=O)N1CCC[C@H](N1)C(=O)OCC(C)(C)C2` (atropisomer, axis not shown) [Compound A666] is 0.01 to 0.1 µM.
In the case of `C=CC(=O)N1CC2(CCN2C(=O)N(C)[C@H](C(=O)N[C@H]2Cc3cccc(c3)-c3ccc4c(c3)c(c(-c3cccnc3[C@H](C)OC)n4CC)CC(C)(C)COC(=O)[C@@H]3CCCN(N3)C2=O)C(C)C)C1` (atropisomer, axis not shown) [Compound A684], the IC50 is under 0.01 µM.

Still in this assay, the particulars now being: read-out: H358 Cell Viability assay data (K-Ras G12C, IC50); Table 5.
Consider `C=CC(=O)N1CC[C@H](C(=O)N(C)[C@H](C(=O)N[C@H]2Cc3cccc(c3)-c3ccc4c(c3)c(c(-c3cc(C5CCN(C)CC5)cnc3[C@H](C)OC)n4CC)CC(C)(C)COC(=O)[C@@H]3CCCN(N3)C2=O)C(C)C)C1` (atropisomer, axis not shown) [Compound A515], for which the IC50 is under 0.01 µM.
On the same count and under the same terms, the value for `C=CC(=O)N1CC[C@H](C(=O)N(C)[C@H](C(=O)N[C@H]2Cc3nc(cs3)-c3ccc4c(c3)c(c(-c3cc(C5=CCN(C)CC5)cnc3[C@H](C)OC)n4CC)CC(C)(C)COC(=O)[C@@H]3CCCN(N3)C2=O)C(C)C)C1` (atropisomer, axis not shown) [Compound A520] was under 0.01 µM.
